Assay [1] deals with mice. The experiment in a line: FS test after AMPT, PCPA, PRAZ or WAY pretreatment (mechanism of antidepressant-like effect of D1). In kind it is in vivo, Male Swiss mice. Particulars: AMPT 100, PCPA 100, PRAZ 1 or WAY 0.3 mg/kg i.p. + Vehicle versus SAL + Vehicle, p > 0.05. As to the method:
Mice were pretreated (i.p) with saline solution or AMPT 100 mg/kg (catecholamine depletor) 4 h prior to the oral administration of vehicle 10 mL/kg or D1 5 mg/kg. […] In a separate experiment, pretreatment (i.p) of mice with saline solution or PCPA 100 mg/kg (serotonin depletor) for four consecutive days prior to oral administration of vehicle or D1 5 mg/kg was used to investigate effect of serotonin depletion on antidepressant-like activity of this OAD. […] In all the four experiments, oral administration of vehicle or D1 5 mg/kg was followed by FS test (60 min interval between p.o. treatment and behavioural testing).

Assay [2] relates to dopamine, noradrenaline and serotonin levels. Particulars: cited from earlier work.
The target in the next assay is T1, 5-HT1A receptor (Mus musculus, UniProt Q64264).
T1 construct: The hippocampi of mice were dissected and homogenized in 5 volumes of ice-cold buffer; from tissue; host or cells: mouse hippocampus membranes
T1 sequence (Q64264 1-421): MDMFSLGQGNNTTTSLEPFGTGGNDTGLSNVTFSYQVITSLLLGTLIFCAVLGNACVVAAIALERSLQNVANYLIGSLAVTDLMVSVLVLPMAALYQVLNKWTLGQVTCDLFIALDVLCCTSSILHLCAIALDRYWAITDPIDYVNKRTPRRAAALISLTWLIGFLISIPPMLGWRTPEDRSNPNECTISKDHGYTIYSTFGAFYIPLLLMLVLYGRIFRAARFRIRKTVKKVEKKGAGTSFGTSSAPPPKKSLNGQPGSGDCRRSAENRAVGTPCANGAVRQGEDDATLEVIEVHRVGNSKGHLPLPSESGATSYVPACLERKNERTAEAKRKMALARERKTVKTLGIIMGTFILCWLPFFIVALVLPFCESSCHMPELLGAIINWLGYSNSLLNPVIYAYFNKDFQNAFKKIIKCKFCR
The experiment in a line: [35S]GTPγS binding to mice hippocampal membranes. In kind it is biochemical. The settings on record: for Emax: read-out: Intrinsic activity (Emax ± SEM in %). As to the method: The hippocampi of mice were dissected and homogenized in 5 volumes of ice-cold buffer (25 mM Tris-HCl, 0.5 mM dithiothreitol, and 0.5 mM EGTA, pH 7.4). The homogenate was centrifuged (1,000 × g for 5 min at 4 °C) and the resultant supernatant was removed. The remaining pellet was resuspended in buffer, homogenized, and centrifuged. The two supernatants obtained were combined and centrifuged at […] at 4 °C and the pellets were resuspended in membrane preparation buffer. The volumes were adjusted prior to the determination of protein concentration by Bradford method[56] and stored at −80 °C until required. […] The reactions were initiated by the addition of 25 μl [^35S]-GTPγS, followed by a 20 min incubation at 20 °C. The reactions were terminated by rapid filtration. The filters were placed in liquid scintillation cocktail in counting vials. The liquid scintillation spectroscopy was used to measure the radioactivity bound to the filter paper after 10 hour.

The subject of assay [3] is mice. The experiment in a line: Forced swimming (FS) test. In kind it is in vivo, Male Swiss mice. As to the method:
(§1) Male Swiss mice (weighing between 25–30 g; 6–8 weeks old), provided by Central Animal House of the Federal University of Goiás, were used in all behavioural models. The experimental animals were kept in an intra-laboratory facility cage (32 × 18 × 16 cm) under controlled environmental conditions (23 ± 1 °C, 12 hr light-dark cycle) with access to food and water ad libitum. The experimental protocols (number 104/08) were approved by Ethical Committee of Federal University of Goiás in accordance to the international laws on the care and use of laboratory animals.
In the FS model, mice were randomly divided into 5 groups [control (vehicle), 3 different doses of OAD and IMI]. Mice were exposed to a modified version of FS test[48] after oral administration of vehicle, OAD (5, 10 or 20 mg/kg) or IMI 15 mg/kg. FS apparatus is a cylindrical water container (42 cm in height, 18 cm in diameter) filled with water up to 30 cm (total volume ( [drawing 1] of 7635.06 cm^3 at 24 ± 2 °C). In this model, the initial escape-directed behaviour like swimming and climbing by mouse are generally followed with a relatively passive and immobile posture. The container was cleaned with 10% ethanol solution prior to the exposure of naïve mouse. This test session (6-min duration) was videotaped and the swimming and immobility time was later scored and analyzed.

For assay [4], the system named is mice. The experiment in a line: Open field (OF) test. In kind it is in vivo, Male Swiss mice. The settings on record: for other parameters of the OF test: 5, 10, 20 mg/kg p.o., parameters not named as changed, p > 0.05. As to the method: as §1
In the OF, animals were randomly divided into six groups [control (vehicle), 3 different doses of OAD, DZP 1 or 5 mg/kg]. Animals were treated with vehicle, OAD (5, 10 or 20 mg/kg, p.o), DZP (1 or 5 mg/kg, p.o) as described in our previous work[7][49], and placed in a circular open field [base area ( [drawing 2] ) = 62.80 cm^2 which is divided into 8 equal sectors enclosed in a 50 cm high wooden wall]. The test session (5-min duration) was videotaped in a sound-proof experimental room. Parameters like total crossing, freezing time, number of grooming and rearing activity, crossing at the centre and time spent at the centre of the open field were observed and scored.

For assay [5] the following is noted: previous study; cited from earlier work.
[6] abbreviates: 100 mg/kg i.p. for four consecutive days.
[7] abbreviates: 20 mg/kg p.o., vs vehicle, p < 0.05.

Where a name gives a salt, the structure may show the parent alone. Read-outs that look alike come from different tables or passages of the source.

Turning to `N[C@@H](Cc1ccc(Cl)cc1)C(=O)O` (racemic) [PCPA, p-chlorophenylalanine], the “animal behaviour (swimming time) after pretreatment prior to vehicle” value (from here on “animal behaviour (swimming time)”) in the assay with mice [1] is “did not alter animal behaviour”. In assay [2] (setting [6]), the “depletion of endogenous serotonin content” value was “about 60%” and the “noradrenaline or dopamine levels” value is “without altering”.

As to `CCCN(CCC)C1CCc2cccc(O)c2C1` (single isomer, unassigned; (+)) [(+) 8-OH-DPAT, 8-OH-DPAT], at 5-HT1A receptor, the EC50 was 158 nM and the Emax worked out at 94 ± 2%.

On to `CC(N)(Cc1ccc(O)cc1)C(=O)O` (stereo not drawn) [AMPT, α-methyl-p-tyrosine], for which, in the assay with mice [1], the “animal behaviour (swimming time)” value is given as “did not alter animal behaviour”. In assay [2] (mice), the levels of serotonin entry is given as “without affecting” and the “reduction of noradrenaline levels” value is 53%. In addition, in assay [2] (mice, tyrosine hydroxylase inhibitor), the “reduction of dopamine levels” value is listed as 57%.

Take `O=C1CC2(CCCC2)CC(=O)N1CCCCN1CCN(c2ncccn2)CC1` [Buspirone, buspirone]: the EC50 on 5-HT1A receptor (mice hippocampal membranes, read-out: Agonist potency (pEC50 ± SEM) (converted)) is 251 nM. Further, the Emax at 5-HT1A receptor (percentage of that produced by 10 μM (+)8-OH-DPAT) is 33 ± 1%.

As to `C=C(C)C(=O)O[C@H]1CC[C@]2(C)[C@H]3CC=C4[C@@H]5CC(C)(C)CC[C@]5(C(=O)O)CC[C@@]4(C)[C@]3(C)CC[C@H]2C1(C)C` [D2, Oleanolic acid methacrylate], in the assay with mice [3] (setting [7]), the “immobility time in the FS test” value is “reduction” and the “swimming time in the FS test” value is reported as “significant increase”. In addition, in the assay on mice [4] (20 mg/kg p.o., vs vehicle), the “total crossing in the OF” value is “increase”. Besides, in the assay with mice [4], the “other parameters of the OF test” value is on record as “not altered”. Besides, the “time spent at the centre of the OF” value in the assay on mice [4] (5, 10 and 20 mg/kg p.o., vs vehicle) was “increase”. The “crossing at the centre of the OF” value in the assay with mice [4] (10 and 20 mg/kg p.o., vs vehicle) was “increase”.

As for `COC(=O)/C=C/C(=O)O[C@H]1CC[C@]2(C)[C@H]3CC=C4[C@@H]5CC(C)(C)CC[C@]5(C(=O)O)CC[C@@]4(C)[C@]3(C)CC[C@H]2C1(C)C` [D3, Oleanolic acid methyl fumarate], in the assay with mice [3] (5, 10, 20 mg/kg p.o., ANOVA), the “immobility time in the FS test” value is given as “did not elicit significant effect” and the “swimming time in the FS test” value is “did not elicit significant effect”. The “number of grooming in the OF” value in the assay with mice [4] (10 mg/kg p.o., vs vehicle) was “reduction”. In the assay on mice [4] (20 mg/kg p.o., vs vehicle), the “freezing time in the OF” value is on record as “increase” and the “time spent at the centre of the OF” value is given as “increase”. Further, the “other parameters of the OF test” value with mice [4] is given as “not altered”.

Turning to `CN1C(=O)CN=C(c2ccccc2)c2cc(Cl)ccc21` [DZP, Diazepam, reference compound], the “effect in the OF test” value was “anxiolytic” in the assay on mice [4] (1 mg/kg p.o.) and “sedative like effect” in the assay on mice [4] (5 mg/kg p.o.).

With `CN(C)CCCN1c2ccccc2CCc2ccccc21` [IMI, imipramine, reference compound], in the assay with mice [3] (15 mg/kg p.o.), the “effect in FS test” value was “antidepressant-like effect”.

For `CC1(C)CC[C@]2(C(=O)O)CC[C@]3(C)C(=CC[C@@H]4[C@@]5(C)CC[C@H](O)C(C)(C)[C@@H]5CC[C@]43C)[C@@H]2C1` [OA, Oleanolic acid], in assay [5], the “dependence of antidepressant-like effect on MAO activity” value was “independent of MAO activity”; the “effect of PCPA, AMPT, NAN, PRAZ and WAY100635 on antidepressant-like effect” value was “blockade”.

As to `COc1cc2nc(N3CCN(C(=O)c4ccco4)CC3)nc(N)c2cc1OC` [PRAZ, prazosin, reference compound], the “animal behaviour (swimming time)” value with mice [1] is “did not alter animal behaviour”.

`COc1ccccc1N1CCN(CCN(C(=O)C2CCCCC2)c2ccccn2)CC1` [WAY, N-{2-[4-(2-methoxyphenyl)-1-piperazinyl]ethyl}-N-2-pyridinylcyclohexane carboxamide, reference compound]: in the assay on mice [1], the “animal behaviour (swimming time)” value was “did not alter animal behaviour”.

On to Oleanolic acid ethyl fumarate [D4], for which the “swimming time in the FS test” value with mice [3] (setting [7]) is given as “significant reduction”. For the same molecule, the “immobility time in the FS test” value in the assay on mice [3] (5, 10, 20 mg/kg p.o., ANOVA) is listed as “without changes”. In addition, in the assay with mice [4] (20 mg/kg p.o., vs vehicle), the “freezing time in the OF” value is “increase” and the “total crossing in the OF” value was “reduction”.

The record behind these values is publication PMC4894409 (Scientific Reports, 2015).
